Assay results as given in patent publication US11707442B2, “Antibacterial and antifungal compounds” (The General Hospital Corporation, priority 2015, dated 2023).
In brackets after ≈: the same amount, converted by molar mass. Where two headings read alike, the source gives them in different places.

What was measured:
[1] = tested on: Salmonella typhimurium strains TA 1535 and TA 1538; settings: With S9; 5 μg/plate
Description: The Ames test was conducted using histidine auxotroph Salmonella typhimurium strains TA 1535 and TA 1538. To test mutagenic potential of the synthetic retinoids themselves and their metabolic products, the assay was conducted both with and without rat liver S9 fraction (Moltox, Boone, N.C., USA). Briefly, 100 μl of bacterial overnight cultures was added into 500 μl of phosphate buffer containing a range of amounts of the retinoids dissolved in 10 μl DMSO and with or without 4% S9. After incubation at 37° C. for 1 h, the samples were added into 2 ml of soft agar including 0.5 mM of histidine/biotin, mixed, and poured onto minimal glucose agar plates. The plates were incubated at 37° C. for 48 h, and the revertant colonies were counted. 10 μl DMSO was used as a negative control. […] 5 μg/plate 2-aminoanthracene was used as a positive control for both strains in the metabolic activation system. The test was performed in triplicate.

C. neoformans = test: MIC against fungal cultures; format: cell-based; settings: Cryptococcus neoformans, read-out: Drug MIC
Description: (§1) The cells were harvested by centrifugation at 4000 RPM for 5 minutes and washed with PBS; the cell pellets were resuspended in RPMI 1640 medium. The cell count was calculated with a hemocytometer and adjusted to be between 5.0×10^4 to 2.5×10^6 cells/ml. A tested compound was prepared and added to RPMI 1640 medium at 2× the final concentration. […] For C. albicans, OD595 was read after incubating the plate at 35° C. for 24 hrs. For KN99α, OD595 was read after incubating the plate at 35° C. for 70 hrs in accordance with CLSI document M27-A2.

Candida tropicalis = test: MIC against fungal cultures; format: cell-based
Description: as §1

Candida glabrata = test: MIC against fungal cultures; format: cell-based; settings: Nakaseomyces glabratus, read-out: Drug MIC
E. faecium = test: MIC, broth microdilution; format: cell-based, Enterococcus faecium; settings: Enterococcus faecium, read-out: Drug MIC
From the text: (§2) Bacterial strains and growth conditions and persister isolation: methicillin-resistant S. aureus (MRSA) strain MW2 BAA-1707, vancomycin-resistant S. aureus strain VRS 1, 11 clinical S. aureus isolates, 8 clinical Enterococcus faecium isolates, Klebsiella pneumoniae WGLW2 (BEI Resources, Manassas, Va., USA), Acinetobacter baumannii ATCC 17978, Pseudomonas aeruginosa PA14, and Enterobacter aerogenes ATCC 13048 were used to test antimicrobial activity (See Table 1a). S. aureus and E. faecium strains were grown in tryptic soy broth (TSB) (BD, Franklin Lakes, N.J., USA) or brain-heart infusion (BHI) broth (BD, Franklin Lakes, N.J., USA), respectively at 37° C. at 225 rpm. K. pneumoniae, A. baumannii, P. aeruginosa, and E. aerogenes were grown in Luria Bertani (LB) broth (BD, Franklin Lakes, N.J., USA).
(§3) To test the bacterial MICs for compounds described herein, the total volume in each well was 100 μl of test compounds and bacterial cells in MH broth. […] The bacterial concentration was adjusted to an initial OD600 of 0.03. After incubation at 35° C. for 18 hrs, the absorbance was measured at 595 nm in accordance with CLSI document M07-A8. The MICs of antibiotics were determined by the standard microdilution method recommended by the Clinical and Laboratory Standards Institute.

S. aureus = test: Minimal inhibitory concentration (MIC), broth microdilution; format: cell-based, Staphylococcus aureus
From the text: as §2, §3

[2] = C. neoformans clinical isolate 41291
[3] = C. neoformans clinical isolate 41292
[4] = C. neoformans clinical isolate 41294
[5] = C. neoformans clinical isolate 41295
[6] = C. neoformans clinical isolate 41296
[7] = C. neoformans clinical isolate 41297
[8] = C. neoformans clinical isolate 41298
[9] = C. neoformans clinical isolate 41299
[10] = C. neoformans clinical isolate 41300
[11] = C. neoformans clinical isolate BF113
[12] = C. neoformans clinical isolate BF114
[13] = ATCC13803, Candida tropicalis ATCC 13803 (Reference), read-out: Drug MIC
[14] = Candida tropicalis clinical isolate 11, read-out: Drug MIC
[15] = Candida tropicalis clinical isolate 85-S, read-out: Drug MIC
[16] = Candida tropicalis clinical isolate 172-S, read-out: Drug MIC
[17] = ATCC90030, Candida glabrata ATCC 90030 (Reference)
[18] = Candida glabrata clinical isolate 6891
[19] = Candida glabrata clinical isolate 6922
[20] = Candida glabrata clinical isolate 6927
[21] = Candida glabrata clinical isolate 6930
[22] = Candida glabrata clinical isolate 6931
[23] = Candida glabrata clinical isolate 6932
[24] = Candida glabrata clinical isolate 6943
[25] = Candida glabrata clinical isolate 7110
[26] = Candida glabrata clinical isolate 7117
[27] = Candida glabrata clinical isolate 7221
[28] = Candida glabrata clinical isolate 7255
[29] = Candida glabrata clinical isolate 7815
[30] = Candida glabrata clinical isolate 7869
[31] = Candida glabrata clinical isolate 7871
[32] = Candida glabrata clinical isolate 8066

`Nc1ccc2cc3ccccc3cc2c1` [2AA, 2-Aminoanthracene] was tested, and the “Number of revertants (T1535)” value [1] was 263 ± 15 and the “Number of revertants (T1538)” value [1] was 2568 ± 108.
Work on `C[C@@H]1[C@H](O)[C@@H](C)/C=C/C=C/C=C/C=C/C=C/C=C/C=C/[C@H](O[C@@H]2O[C@H](C)[C@@H](O)[C@H](N)[C@@H]2O)C[C@@H]2O[C@](O)(C[C@@H](O)C[C@@H](O)[C@H](O)CC[C@@H](O)C[C@@H](O)CC(=O)O[C@H]1C)C[C@H](O)[C@H]2C(=O)O` [Amphotericin B] yielded an MIC (C. neoformans; [2]) of 0.125 µg/mL (≈ 0.135 µM), an MIC (C. neoformans; [3]) of 0.125 µg/mL (≈ 0.135 µM) and an MIC (C. neoformans; [4]) of 0.125 µg/mL (≈ 0.135 µM). For the same compound, the MIC (C. neoformans; [5]) was 0.125 µg/mL (≈ 0.135 µM), the MIC (C. neoformans; [6]) was 0.125 µg/mL (≈ 0.135 µM) and the MIC (C. neoformans; [7]) was 0.125 µg/mL (≈ 0.135 µM). It also gave an MIC (C. neoformans; [8]) of 0.125 µg/mL (≈ 0.135 µM), an MIC (C. neoformans; [9]) of 0.125 µg/mL (≈ 0.135 µM) and an MIC (C. neoformans; [10]) of 0.125 µg/mL (≈ 0.135 µM). For the same compound, the MIC (C. neoformans; [11]) was 0.125 µg/mL (≈ 0.135 µM), the MIC (C. neoformans; [12]) was less than 0.0625 µg/mL and the MIC (Candida tropicalis; [13]) was 1 µg/mL (≈ 1.08 µM). It also gave an MIC (Candida tropicalis; [14]) of 0.5 µg/mL (≈ 0.541 µM), an MIC (Candida tropicalis; [15]) of 0.125 µg/mL (≈ 0.135 µM) and an MIC (Candida tropicalis; [16]) of 0.5 µg/mL (≈ 0.541 µM). It also gave an MIC (Candida glabrata; [17]) of 1 µg/mL (≈ 1.08 µM), an MIC (Candida glabrata; [18]) of 0.5 µg/mL (≈ 0.541 µM) and an MIC (Candida glabrata; [19]) of 0.5 µg/mL (≈ 0.541 µM). It also gave an MIC (Candida glabrata; [20]) of 1 µg/mL (≈ 1.08 µM), an MIC (Candida glabrata; [21]) of 1 µg/mL (≈ 1.08 µM) and an MIC (Candida glabrata; [22]) of 0.5 µg/mL (≈ 0.541 µM). For the same compound, the MIC (Candida glabrata; [23]) was 0.5 µg/mL (≈ 0.541 µM), the MIC (Candida glabrata; [24]) was 1 µg/mL (≈ 1.08 µM) and the MIC (Candida glabrata; [25]) was 0.5 µg/mL (≈ 0.541 µM). It also gave an MIC (Candida glabrata; [26]) of 0.5 µg/mL (≈ 0.541 µM), an MIC (Candida glabrata; [27]) of 0.5 µg/mL (≈ 0.541 µM) and an MIC (Candida glabrata; [28]) of 1 µg/mL (≈ 1.08 µM). It also gave an MIC (Candida glabrata; [29]) of 0.5 µg/mL (≈ 0.541 µM), an MIC (Candida glabrata; [30]) of 1 µg/mL (≈ 1.08 µM) and an MIC (Candida glabrata; [31]) of 1 µg/mL (≈ 1.08 µM). For the same compound, the MIC (Candida glabrata; [32]) was 0.5 µg/mL (≈ 0.541 µM).
`OC(Cn1cncn1)(Cn1cncn1)c1ccc(F)cc1F` [Fluconazole] showed an MIC (C. neoformans; [2]) of 8 µg/mL (≈ 26.1 µM), an MIC (C. neoformans; [3]) of 64 µg/mL (≈ 209 µM) and an MIC (C. neoformans; [4]) of 8 µg/mL (≈ 26.1 µM). The MIC (C. neoformans; [5]) was 64 µg/mL (≈ 209 µM), the MIC (C. neoformans; [6]) was greater than 64 µg/mL and the MIC (C. neoformans; [7]) was 8 µg/mL (≈ 26.1 µM). It also gave an MIC (C. neoformans; [8]) of 8 µg/mL (≈ 26.1 µM), an MIC (C. neoformans; [9]) of 4 µg/mL (≈ 13.1 µM) and an MIC (C. neoformans; [10]) greater than 64 µg/mL. For the same compound, the MIC (C. neoformans; [11]) was 16 µg/mL (≈ 52.2 µM), the MIC (C. neoformans; [12]) was 64 µg/mL (≈ 209 µM) and the MIC (Candida tropicalis; [13]) was 8 µg/mL (≈ 26.1 µM). The MIC (Candida tropicalis; [14]) was 0.5 µg/mL (≈ 1.63 µM), the MIC (Candida tropicalis; [15]) was 1 µg/mL (≈ 3.27 µM) and the MIC (Candida tropicalis; [16]) was 2 µg/mL (≈ 6.53 µM). For the same compound, the MIC (Candida glabrata; [17]) was 8 µg/mL (≈ 26.1 µM), the MIC (Candida glabrata; [18]) was 2 µg/mL (≈ 6.53 µM) and the MIC (Candida glabrata; [19]) was 2 µg/mL (≈ 6.53 µM). For the same compound, the MIC (Candida glabrata; [20]) was 2 µg/mL (≈ 6.53 µM), the MIC (Candida glabrata; [21]) was 1 µg/mL (≈ 3.27 µM) and the MIC (Candida glabrata; [22]) was 0.5 µg/mL (≈ 1.63 µM). For the same compound, the MIC (Candida glabrata; [23]) was 0.5 µg/mL (≈ 1.63 µM), the MIC (Candida glabrata; [24]) was 8 µg/mL (≈ 26.1 µM) and the MIC (Candida glabrata; [25]) was 1 µg/mL (≈ 3.27 µM). For the same compound, the MIC (Candida glabrata; [26]) was 2 µg/mL (≈ 6.53 µM), the MIC (Candida glabrata; [27]) was 1 µg/mL (≈ 3.27 µM) and the MIC (Candida glabrata; [28]) was 2 µg/mL (≈ 6.53 µM). For the same compound, the MIC (Candida glabrata; [29]) was 2 µg/mL (≈ 6.53 µM), the MIC (Candida glabrata; [30]) was 4 µg/mL (≈ 13.1 µM) and the MIC (Candida glabrata; [31]) was 2 µg/mL (≈ 6.53 µM). The MIC (Candida glabrata; [32]) was 2 µg/mL (≈ 6.53 µM).
`O=C(N[C@H](CO)[C@H](O)c1ccc([N+](=O)[O-])cc1)C(Cl)Cl` [chloramphenicol] gave an MIC (E. faecium; Enterococcus faecium clinical isolate C68 (Table 6)) of 16 µg/mL (≈ 49.5 µM), an MIC (E. faecium; Enterococcus faecium clinical isolate D14 (Table 6)) of 8 µg/mL (≈ 24.8 µM) and an MIC (E. faecium; Enterococcus faecium clinical isolate D24 (Table 6)) of 4 µg/mL (≈ 12.4 µM). It also gave an MIC (E. faecium; Enterococcus faecium clinical isolate D25 (Table 6)) of 8 µg/mL (≈ 24.8 µM), an MIC (E. faecium; Enterococcus faecium clinical isolate D29 (Table 6)) of 64 µg/mL (≈ 198 µM) and an MIC (E. faecium; Enterococcus faecium clinical isolate W312 (Table 6)) of 8 µg/mL (≈ 24.8 µM). It also gave an MIC (E. faecium; Enterococcus faecium clinical isolate WC176 (Table 6)) of 16 µg/mL (≈ 49.5 µM).
With “Defensin 1: a CAMP (cationic antimicrobial peptide) secreted by the host immune system” the MIC (S. aureus; S. aureus MW2 mutant SP1-8 (graS)) was 8 µg/mL, the MIC (S. aureus; S. aureus MW2 mutant SP1-48 (graS, manA)) was 8 µg/mL and the MIC (S. aureus; S. aureus MW2 mutant SP1-74 (graS, manA, MW2474)) was 8 µg/mL. It also gave an MIC (S. aureus; S. aureus MW2 mutant SP1-100 (graS, manA, MW2474)) of 8 µg/mL, an MIC (S. aureus; S. aureus MW2 mutant SP2-13 (yjbH)) of 16 µg/mL and an MIC (S. aureus; S. aureus MW2 mutant SP2-52 (yjbH, dltB)) of 8 µg/mL. The MIC (S. aureus; S. aureus MW2 mutant SP2-59 (yjbH, dltB, manA)) was 8 µg/mL, the MIC (S. aureus; S. aureus MW2 mutant SP2-65 (yjbH, dltB, manA, MW1685)) was 8 µg/mL and the MIC (S. aureus; S. aureus MW2 mutant SP2-100 (yjbH dltB, manA, MW1685)) was 8 µg/mL. The MIC (S. aureus; S. aureus MW2 serial passage culture SP1-1 (no mutated gene)) was 16 µg/mL and the MIC (S. aureus; S. aureus MW2 serial passage culture SP2-1 (no mutated gene)) was 16 µg/mL.
